# Measurements taken from paper PMC6935813, “Assessment of the Aromatase Inhibitory Activity of Ma-Huang-Tang (MHT) and Its Active Compounds” (Evidence-based Complementary and Alternative Medicine : eCAM, 2019).
# What was measured:
# aromatase [1] = biological target: T1, aromatase (Homo sapiens, UniProt P11511); assay: Cell-free fluorescence-based aromatase inhibition assay (DBF hydrolysis); format: biochemical; set-up: purchased Corning (Woburn, MA, USA); conditions: DBF substrate
# T1 sequence (P11511 1-503): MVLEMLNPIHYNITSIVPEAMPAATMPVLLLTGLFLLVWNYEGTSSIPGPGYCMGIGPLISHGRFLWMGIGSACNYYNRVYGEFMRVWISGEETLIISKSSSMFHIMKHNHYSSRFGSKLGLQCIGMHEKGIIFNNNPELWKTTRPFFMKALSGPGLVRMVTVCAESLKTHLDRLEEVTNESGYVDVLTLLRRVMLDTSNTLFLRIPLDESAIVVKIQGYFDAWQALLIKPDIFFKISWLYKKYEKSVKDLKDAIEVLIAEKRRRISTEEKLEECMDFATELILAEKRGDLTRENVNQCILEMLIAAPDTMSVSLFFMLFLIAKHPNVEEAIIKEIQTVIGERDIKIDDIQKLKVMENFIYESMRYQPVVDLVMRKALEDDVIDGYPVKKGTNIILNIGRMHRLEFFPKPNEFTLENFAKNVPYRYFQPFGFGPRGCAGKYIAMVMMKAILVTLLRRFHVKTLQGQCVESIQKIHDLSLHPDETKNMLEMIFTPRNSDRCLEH
# Method: Supersomes human CYP19 was obtained from Corning (Woburn, MA, USA). Analytical-grade acetonitrile, methanol, and ultrapure water were purchased from J. T. Baker (Phillipsburg, NJ, USA). Trifluoroacetic acid was of analytical grade and was purchased from Sigma-Aldrich.
# The inhibition of aromatase activity by MHT and each component was assessed by measuring the fluorescence intensity of fluorescein produced by the hydrolysis of DBF [20, 28]. […] A 100 μL mixture of aromatase and substrate (2 μM DBF, 40 pmol/mL aromatase, and 4 mg/mL albumin in 50 mM potassium phosphate, pH 7.4) was then added to the sample, and the resulting mixture was incubated for 30 min at 37°C in the dark. After the reaction, the sample was incubated with 150 μL of 2N NaOH for an additional 2 h at 37°C to remove impurities other than fluorescein. […] All experiments were performed three times at separate times.
# The results are expressed as the means ± SEMs from multiple experiments. Paired Student's t-tests with Tukey's multiple comparison tests were performed to compare two groups using PRISM software (GraphPad, CA, USA). A p value <0.05 was considered to be statistically significant. Additionally, IC50 values were calculated by sigmoidal dose-response curve fitting (variable slope) using PRISM software.
# aromatase [2] = biological target: T1, aromatase; assay: Cell-based aromatase assay: estrone ELISA in KGN cells given androstenedione; conditions: estrone level by ELISA; maximum con. 5 mM; read-out: Aromatase inhibition IC50 in KGN cells
# Method: The human granulosa-like tumor cell line KGN was obtained from RIKEN BioResource Center (Ibaraki, JPN). The cells were grown in Dulbecco's modified Eagle's medium/Ham's F-12 nutrient mix (DMEM/F-12, Welgen, Daejeon, KOR) supplemented with 5% (v/v) fetal bovine serum (FBS) and 0.5% antibiotics (100 U/mL penicillin and 100 μg/mL streptomycin, Gibco BRL, NY, USA) in a humidified atmosphere of 5% CO2 at 37°C. Prior to treatment with MHT and its components in all the experiments, the cells were cultured for 24 h by switching to phenol-red free DMEM/H-12 medium (Welgen, Daejeon, KOR) with 5% (v/v) charcoal-stripped FBS (HyClone, Logan, UT, USA), and the samples were treated under the same conditions.
# Cells (4 × 10^4 cells/mL) were placed on a 96-well tissue culture plate and incubated in DMEM/F-12 medium with 5% charcoal-stripped FBS (HyClone, Logan, UT, USA) overnight. After the addition of MHT or its components, the cells were incubated for 24 h. […] The estrone concentration in each of the samples was measured at 450 nm using a Synergy/HTX multimode reader (Bio-Tek Instruments Inc., VT, USA) with an estrone ELISA kit (Abnova, CA, USA), and the cell viability was measured using a CCK-8 assay (Dojindo Laboratories, Tokyo, JPN).
# Additionally, IC50 values were calculated by sigmoidal dose-response curve fitting (variable slope) using PRISM software.
Structure (SMILES),IC50 (aromatase [1]; maximum con. 10 mM),IC50 (aromatase [1]; human CYP19 Supersomes),IC50 (aromatase [2])
"O=c1ccc2ccccc2o1 [Coumarin (2), coumarin]",> 10 mM,,
"CC1(C)[C@@H](O[C@H]2O[C@H](C(=O)O)[C@@H](O)[C@H](O)[C@H]2O[C@@H]2O[C@H](C(=O)O)[C@@H](O)[C@H](O)[C@H]2O)CC[C@]2(C)[C@H]3C(=O)C=C4[C@@H]5C[C@@](C)(C(=O)O)CC[C@]5(C)CC[C@@]4(C)[C@]3(C)CC[C@@H]12 [Glycyrrhizin (8), glycyrrhizin]",> 10 mM,,
"O=C1C[C@@H](c2ccc(O[C@@H]3O[C@H](CO)[C@@H](O)[C@H](O)[C@H]3O)cc2)Oc2cc(O)ccc21 [Liquiritin (5), liquiritin]",,0.53 mM,
"CN[C@@H](C)[C@H](O)c1ccccc1 [Ephedrine (1), ephedrine]",> 10 mM,,
"O=C1CC(c2ccc(O)cc2)Oc2cc(O)ccc21 (centres unmarked) [Liquiritigenin (7), liquiritigenin]",1.61 mM,,1.41 mM
"O=C(O)/C=C/c1ccccc1 [Cinnamic acid (3), cinnamic acid]",> 10 mM,,
"O=C/C=C/c1ccccc1 [Cinnamaldehyde (4), cinnamaldehyde]",> 10 mM,,
